{"source": "patent US12053522B2", "about": "“Pro-inflammatory and anti-cancer functions of toll-like receptor 4 antagonists” (Children's Medical Center Corporation, priority 2015, dated 2024)", "assay_type_in_all_cases": "cell-based, mouse", "key": {"[1]": {"system": "primary bone marrow-derived MΦs", "experiment": "IL-1β release from macrophages (ELISA)", "source_text": "(§1) C57BL/6J (Jax 000664), C57BL/6NJ (Jax 005304), CD14 KO (Jax 003726), caspase-1/-11 dKO mice (Jax 016621), TLR4-mutant (C3H/HeJ, Jax 000659), and wild-type control for TLR4-mutant (C3H/HeSNJ, Jax 000661) were purchased from Jackson Labs. NLRP3 KO and ASC KO mice were kindly provided by Dr. T. Horng, Harvard School of Public Health. Caspase-11 KO mice were kindly provided by Dr. Junying Yuan, Harvard Medical School. Caspase-1 single KO mice were kindly provided by Thirumala-Devi Kanneganti (St. Judes). DCs were differentiated from bone marrow in IMDM (Gibco), 10% B16-GM-CSF derived supernatant, 2 μM 2-mercaptoethanol and 10% FBS and used after 6 day of culture. DC purity was assessed by flow cytometry and was usually higher than 90%. […]\nRNA was isolated from cell cultures using Qiashedder (Qiagen) and GeneJET RNA Purification Kit (Life Technologies). Purified RNA was analyzed for gene expression on a CFX384 real time cycler (Bio-rad) using TaqMan RNA-to-CT 1-Step Kit (Applied Biosystems) with probes purchased from Life Technologies specific for viperin (Mm00491265_m1), IFNb1 (Mm00439552_s1), IL6 (Mm00446190_m1), caspase-1 (Mm00438023_m1), caspase-11 (Mm00432307_m1), Nlrp3 (Mm00840904_m1), Asc (Mm00445747_g1), TBP (Mm00446971_m1) or GAPDH (Mm99999915_g1). ELISA for IL-1β, IL-2, IL-17, IL-18, TNFα and IFNγ were performed using Mouse Ready-SET-Go ELISA kits (eBioscience). […]"}, "DCs [2]": {"system": "DCs", "experiment": "Single cell viability assay of inflammasome-containing cells (Zombie dye, active mitochondria)", "conditions": "LPS-pretreated DCs", "description": "BMDCs cells were treated with LPS (1 μg/mL) for 3 hours before inflammasome-inducing stimuli challenge. For live or permeability experiment, MitotTacker CMX-ROS (Life Technologies) or Zombie Red (BioLegend) dyes were used in according to manufacturer's instructions before fixation with 4% paraformaldehyde. After permeabilization step using 0.1% Triton X-100 0.2% BSA-PBS, cells were blocked in 2% BSA-PBS and incubated with rabbit anti-ASC pAb (AL177, Adipogen) and mouse anti-caspase-1 mAb (Casper-1, Adipogen) followed by Alexa Fluor 488-conjugated chicken anti-rabbit IgG (Life Technologies) and Alexa Fluor 568-conjugated goat anti-mouse IgG (Life Technologies) diluted in blocking buffer. Nuclei were counterstained with DAPI (Life Technologies) or DRAQ5 (BioLegend). A Zeiss Axiovert 200M confocal microscope or an Olympus BX41 fluorescence microscope was used to acquire images."}, "LPS-pretreated DCs": {"system": "LPS-pretreated DCs", "experiment": "ASC and caspase-1 containing speck formation (immunofluorescence)", "conditions": "ATP 1 mM, oxPAPC 120 μM", "experimental": "For live or permeability experiment, MitotTacker CMX-ROS (Life Technologies) or Zombie Red (BioLegend) dyes were used in according to manufacturer's instructions before fixation with 4% paraformaldehyde. After permeabilization step using 0.1% Triton X-100 0.2% BSA-PBS, cells were blocked in 2% BSA-PBS and incubated with rabbit anti-ASC pAb (AL177, Adipogen) and mouse anti-caspase-1 mAb (Casper-1, Adipogen) followed by Alexa Fluor 488-conjugated chicken anti-rabbit IgG (Life Technologies) and Alexa Fluor 568-conjugated goat anti-mouse IgG (Life Technologies) diluted in blocking buffer. Nuclei were counterstained with DAPI (Life Technologies) or DRAQ5 (BioLegend). A Zeiss Axiovert 200M confocal microscope or an Olympus BX41 fluorescence microscope was used to acquire images."}, "DCs [3]": {"system": "DCs", "experiment": "DC viability / survival (7-AAD staining)", "conditions": "up to 72 hours after treatment; ATP and oxPAPC in LPS-treated DCs", "source_text": "It was contemplated that living cells should resist staining with Zombie dye, a stain that labels the cytosol of cells whose plasma membranes have been disrupted. Cells with intact plasma membranes should also retain functional organelles. In contrast, pyroptotic cells should have lost their organelles and should stain strongly for Zombie dye. […] Moreover, not only did oxPAPC not induce pyroptosis, this lipid counteracted the slow acting death pathways activated by LPS in DCs (Zanoni, I. et al. (2009) Nature 460, 264-268). For this experiment, the health of individual cells within the population up to 72 hours after treatment was assessed by flow cytometry, using the viability stain 7-AAD, which detected genomic DNA within cells whose membranes had been permeabilized (Paterson, A. M. et al., (2011) J Immunol 187, 1097-1105)."}, "bone marrow derived DCs": {"system": "bone marrow derived DCs", "experiment": "IL-1β release from DCs (ELISA)", "experimental": "NLRP3 KO and ASC KO mice were kindly provided by Dr. T. Horng, Harvard School of Public Health. Caspase-11 KO mice were kindly provided by Dr. Junying Yuan, Harvard Medical School. Caspase-1 single KO mice were kindly provided by Thirumala-Devi Kanneganti (St. Judes). DCs were differentiated from bone marrow in IMDM (Gibco), 10% B16-GM-CSF derived supernatant, 2 μM 2-mercaptoethanol and 10% FBS and used after 6 day of culture. […] MO were differentiated from bone marrow in DMEM (Gibco), 30% L929 supernatant, and 10% FBS. Immortal MΦs were cultured in DMEM supplemented with 10% L929 supernatant and 10% FBS. […] For experiments using pan-caspase inhibitor, cells were treated with zVADfmk (20 μM) 30 min before inflammasome activation stimuli addition. Cycloheximide (50 ng/ml) was added at the time of stimuli administration. Transfection with DOTAP was performed following the manufacturer instructions. […] 30 min later, the DOTAP/LPS or DOTAP/oxPAPC complex were added to the culture.\nRNA was isolated from cell cultures using Qiashedder (Qiagen) and GeneJET RNA Purification Kit (Life Technologies). Purified RNA was analyzed for gene expression on a CFX384 real time cycler (Bio-rad) using TaqMan RNA-to-CT 1-Step Kit (Applied Biosystems) with probes purchased from Life Technologies specific for viperin (Mm00491265_m1), IFNb1 (Mm00439552_s1), IL6 (Mm00446190_m1), caspase-1 (Mm00438023_m1), caspase-11 (Mm00432307_m1), Nlrp3 (Mm00840904_m1), Asc (Mm00445747_g1), TBP (Mm00446971_m1) or GAPDH (Mm99999915_g1). ELISA for IL-1β, IL-2, IL-17, IL-18, TNFα and IFNγ were performed using Mouse Ready-SET-Go ELISA kits (eBioscience). To measure secreted cytokines, supernatant were collected, clarified by centrifugation and stored at −20° C. Cell associated cytokines were measured as follows: 96-well plates were centrifuged and supernatant was discarded. 250 μl of PBS were added to each well. Cells were frozen and thawed two times at −80° C. and then stored at −20° C. for further analysis."}, "DCs [4]": {"system": "DCs", "experiment": "Pyroptosis / cell death by LDH release", "conditions": "LPS-primed DCs", "source_text": "In addition to promoting IL-β release, inflammasome activation has been typically associated with the induction of cell death (Aachoui, Y., (2013b). Current opinion in microbiology 16, 319-326). Without wishing to be bound by theory, cell death via non-canonical inflammasomes is believed to depend upon the enzymatic activity of caspase-11, which must cleave at least two proteins, gasdermin d and pannexin-1 (Kayagaki, N. et al., (2015) Nature 526, 666-671; Shi, J. et al., (2015) Nature 526, 660-665; Yang, D. et al., (2015) Immunity 43, 923-932). […] To assess this possibility directly, pyroptosis induction after oxPAPC administration or LPS transfection in LPS-primed DCs was measured. Pyroptosis is characterized by a rapid loss of plasma membrane integrity, which should release cytoplasmic proteins (and organelles) from the cell body. LDH release in the supernatant was used to assess membrane permeabilization of the cell population during pyroptosis. LPS/ATP-treated cells released LDH starting 4 hours after treatment (FIG. 48A); this combination was a well-defined activator of inflammasome-mediated cell death (Aachoui, Y., (2013b). Current opinion in microbiology 16, 319-326). Cells transfected with LPS, independently from LPS priming, died at later time points than cells treated with ATP (FIG. 48A)."}, "DCs [5]": {"system": "DCs", "experiment": "TNFα secretion from DCs (ELISA)", "conditions": "WT and caspase-11 KO DCs", "source_text": "as §1, with “90%. MO were differentiated from bone marrow in DMEM (Gibco), 30% L929 supernatant, and 10% FBS. Immortal MΦs were cultured in DMEM supplemented with 10% L929 supernatant and 10% FBS. Splenic DCs were purified as described previously (Zanoni et al., 2012). Prior to stimulations, cultured cells were washed and re-plated in DMEM supplemented with 10% FBS at a concentration of 1×10^6 cells/ml in a final volume of 100 μl. For experiments using pan-caspase inhibitor, cells were treated with zVADfmk (20 μM) 30 min before inflammasome activation stimuli addition.” for “90%.”\nRNA was isolated from cell cultures using Qiashedder (Qiagen) and GeneJET RNA Purification Kit (Life Technologies). Purified RNA was analyzed for gene expression on a CFX384 real time cycler (Bio-rad) using TaqMan RNA-to-CT 1-Step Kit (Applied Biosystems) with probes purchased from Life Technologies specific for viperin (Mm00491265_m1), IFNb1 (Mm00439552_s1), IL6 (Mm00446190_m1), caspase-1 (Mm00438023_m1), caspase-11 (Mm00432307_m1), Nlrp3 (Mm00840904_m1), Asc (Mm00445747_g1), TBP (Mm00446971_m1) or GAPDH (Mm99999915_g1). ELISA for IL-1β, IL-2, IL-17, IL-18, TNFα and IFNγ were performed using Mouse Ready-SET-Go ELISA kits (eBioscience). […] Cell associated cytokines were measured as follows: 96-well plates were centrifuged and supernatant was discarded. […]"}}, "data": [{"smiles": "Nc1ncnc2c1ncn2[C@@H]1O[C@H](COP(=O)(O)OP(=O)(O)OP(=O)(O)O)[C@@H](O)[C@H]1O", "note": "[ATP]", "values": [{"measurement": "IL-1β release", "setting": "[1]", "value": "promoted the efficient release of IL-1β"}, {"measurement": "mitochondria and Zombie dye staining of cells containing ASC specks", "setting": "DCs [2]", "value": "lost mitochondria and stained positive for Zombie dye"}, {"measurement": "formation of ASC and caspase-1-containing specks", "setting": "LPS-pretreated DCs", "value": "induced the formation"}, {"measurement": "DC viability (7-AAD)", "setting": "DCs [3]", "value": "diminished DC viability"}, {"measurement": "IL-1β release", "setting": "bone marrow derived DCs; BMDCs lacking caspase-1/-11 or ASC", "value": "completely lost"}, {"measurement": "IL-1β release", "setting": "bone marrow derived DCs; LPS-primed DCs", "value": "elicit IL-1β release from DCs in a dose-dependent manner"}, {"measurement": "IL-1β release", "setting": "bone marrow derived DCs; LPS-primed caspase-11 KO DCs", "value": "remained intact"}, {"measurement": "cell-associated IL-1β levels", "setting": "bone marrow derived DCs; LPS-primed, compared with LPS alone", "value": "similar"}, {"measurement": "IL-1β release", "setting": "bone marrow derived DCs; NLRP3-deficient BMDCs", "value": "NLRP3 dependent"}, {"measurement": "IL-1β release", "setting": "bone marrow derived DCs; Pam3CSK-primed caspase-11 KO cells", "value": "remained intact"}, {"measurement": "time from which LDH was released", "setting": "DCs [4]", "value": "≥ 4", "unit": "h"}, {"measurement": "TNFα secretion", "setting": "DCs [5]", "value": "not affected"}]}]}
